Laboratory results as given in PMC12475274, “Harnessing indole scaffolds to identify small-molecule IRE1α inhibitors modulating XBP1 mRNA splicing” (Nature Communications, 2025).
Several values for one entry are separate records, joined by “and”; a condition that tells them apart may be missing. Equal entries are not always repeated. Entries after “also recorded” stand apart in the source; their conditions may differ. Where two headings read alike, the source gives them in different places. One block for each compound: values may come before it.

What was measured:
[1] = target: T1, phosphorylated IRE1α (p-IRE1α) (Homo sapiens, UniProt O75460); test: FRET-based IRE1α RNase activity assay, phosphorylated IRE1α; type: biochemical; settings: for inhibition(%): p-IRE1a
T1 construct: Human IRE1α kinase and RNase domain (residues 547–977) was subcloned into pLIB plasmid; His tag (with TEV cleavage site) (N, cleaved yes); made in house; host or cells: Sf9 insect cells, baculovirus (Bac-to-Bac)
How it was run: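 Cleavage of a dual-labeled XBP1 RNA (200 nM) was followed kinetically over 1 h at room temperature at 485/535 nm, with initial slopes giving percent inhibition and IC50. Enzyme was 4 nM phosphorylated human IRE1α 547–977 from insect cells, incubated with compound for 30 min before substrate; buffer 20 mM HEPES pH 7.5, KOAc, MgOAc2, DTT, Triton X-100.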

dephosphorylated IRE1α = target: T2, dephosphorylated IRE1α (Homo sapiens, UniProt O75460); test: Isothermal titration calorimetry (ITC), incl. competitive ITC; type: binding
T2 construct: Human IRE1α kinase and RNase domain (residues 547–977) was subcloned into pLIB plasmid; His tag (with TEV cleavage site) (N, cleaved yes); made in house; host or cells: Sf9 insect cells, baculovirus (Bac-to-Bac)
Method: The dephosphorylated IRE1α protein was used directly after purification, ITC experiments were carried out at 25 °C using MicroCal PEAQ-ITC system (Malvern) in buffer 25 mM HEPES pH 7.5, 250 mM NaCl, 1 mM TCEP, 5% glycerol, 1% DMSO. The solution was diluted to a final 1% DMSO in the same buffer as for the protein. Protein and compound solution were degassed before loading to the cell and syringe respectively. Unless otherwise noted, 200 μM of compound was loaded into the syringe and 10 μM of IRE1α protein was loaded into the sample cell. For competitive ITC, the protein was incubated with the indicated compound at 25 °C (final 1% DMSO) before loading to the cell. Instrument settings were: reference power 10 μcal/s, feedback high, stir speed 750 rpm, initial delays 60 s, injection spacing 150 s, injection duration 4 s. All experiments were performed with a single 0.4 μL injection followed by 18 (or 15), 2 μL injections. Data were analyzed using MicroCal PEAQ-ITC analysis software. The one set of sites fitting model is used for the calorimetry data analysis, with cell concentration and syringe concentration as the input parameters. For compound IA01, the N was set to 1 to improve the fit.

IRE1α = target: T3, IRE1α (Homo sapiens, UniProt O75460); test: Differential scanning fluorimetry (DSF), IRE1α; type: binding; settings: for IRE1a ∆Tm: DSF, individual measurements; for IRE1 ∆Tm(°C): Supplementary Fig. 3c, replicate values
T3 construct: Human IRE1α kinase and RNase domain (residues 547–977) was subcloned into pLIB plasmid; His tag (with TEV cleavage site) (N, cleaved yes); made in house; host or cells: Sf9 insect cells, baculovirus (Bac-to-Bac)
Method: (§1) The DSF assay was performed in PBS buffer containing 2 mM DTT, in a total reaction volume of 20 µl with indicated compounds (final 1% DMSO) and the final concentration of 1 µM IRE1α protein and 5× SYPRO Orange fluorescent dye (5000× in DMSO, Sigma S5692). The melting curve was measured at a temperature range from 25 °C to 95 °C and in increments of 1 °C for 30 s using a Bio-Rad CFX96 Real-Time PCR detection system with the FRET scan mode. The melting temperature (Tm) was obtained by fitting the melting curve to Boltzmann sigmoidal in GraphPad Prism and the thermal shift (∆Tm) was calculated by using the equation: ∆Tm = Tm(compound) -Tm(DMSO).

p-IRE1α = target: T4, p-IRE1α (Homo sapiens, UniProt O75460); test: Differential scanning fluorimetry (DSF), p-IRE1α; type: binding; settings: for p-IRE1a ∆Tm: DSF, individual measurements; for p-IRE1a ∆Tm(°C): individual replicate values
T4 construct: Human IRE1α kinase and RNase domain (residues 547–977) was subcloned into pLIB plasmid; His tag (with TEV cleavage site) (N, cleaved yes); made in house; host or cells: Sf9 insect cells, baculovirus (Bac-to-Bac)
Method: as §1

[2] = FRET assay, RNase activity, mean (± SEM), read-out: p-IRE1α IC50
[3] = FRET assay, source data, unit from Fig. 3, read-out: p-IRE1a IC50, individual replicates (n1-n4)
[4] = 200 μM compound into 10 μM IRE1α, no competitor

T3 sequence (O75460 547-977): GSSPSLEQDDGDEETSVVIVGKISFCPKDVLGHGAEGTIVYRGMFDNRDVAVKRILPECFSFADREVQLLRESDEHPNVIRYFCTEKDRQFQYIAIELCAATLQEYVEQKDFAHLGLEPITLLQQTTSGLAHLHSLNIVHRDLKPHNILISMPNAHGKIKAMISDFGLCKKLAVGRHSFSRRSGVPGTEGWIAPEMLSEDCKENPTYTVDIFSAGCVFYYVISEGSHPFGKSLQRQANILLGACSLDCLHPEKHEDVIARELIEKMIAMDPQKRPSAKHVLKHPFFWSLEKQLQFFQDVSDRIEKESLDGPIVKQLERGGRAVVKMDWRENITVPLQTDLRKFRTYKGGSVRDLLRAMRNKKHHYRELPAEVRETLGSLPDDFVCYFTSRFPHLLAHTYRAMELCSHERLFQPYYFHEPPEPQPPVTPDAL
T2 sequence (O75460 547-977): as above
T4 sequence (O75460 547-977): as above
T1 sequence (O75460 547-977): as above

KD (competition ITC) (dephosphorylated IRE1α; G1749 to IRE1α with 1 mM IA107, ND, not detectable): did not show a detectable binding
SMILES: CCOC(=O)Nc1cccc2c(Oc3ncccc3-c3ccnc(N[C@H]4CCCNC4)n3)c(C)ccc12 [Compound G1749, reference compound]
effect on p-IRE1α RNase activity in the FRET assay [1]: inhibiting p-IRE1α; also recorded: inhibit the p-IRE1α RNase activity | inhibition(%) ([1]; 5.55556 μM): 93.9541% and 94.7061% and 91.8428% and 92.9515% | inhibition(%) ([1]; 16.6667 μM): 92.2815% and 93.8095% and 92.7972% and 92.696% | inhibition(%) ([1]; 50 μM): 92.1465% and 91.4042% and 91.8332% and 89.3845%

SMILES: COc1ccc2c(c1)c(CCC(=O)O)c(C)n2C(=O)c1ccc(Cl)cc1 [IA01]
inhibition at 50 µM ([1]; FRET assay at 50 μM, mean (± SEM), read-out: p-IRE1α inhibition%): 99.3% | p-IRE1a Inhibiton%, individual measurements ([1]; FRET assay at 50 μM, source data, 50 µM): 102.461% and 99.7014% and 101.879% and 92.3671% and 96.3072% | inhibition at 50 µM ([1]; FRET assay at 50 μM, source data, read-out: p-IRE1a Inhibiton%, individual measurements): 103% | IC50 [1, 2]: 320 nM | IC50 [1, 3]: 544 nM and 136 nM and 264 nM and 325 nM | stabilization of IRE1α in DSF (IRE1α): stabilized IRE1α concentration-dependently | IRE1a ∆Tm (IRE1α; compound 25 μM): 1.17 °C and 1.02 °C | IRE1a ∆Tm (IRE1α; compound 50 μM): 1.57 °C and 1.89 °C | stabilization of p-IRE1α in DSF (p-IRE1α): concentration-dependently stabilized | p-IRE1a ∆Tm (p-IRE1α; compound 25 μM): 0.52 °C and 0.47 °C | p-IRE1a ∆Tm (p-IRE1α; compound 50 μM): 0.91 °C and 1.02 °C | -TΔS (ITC) (dephosphorylated IRE1α; [4]): -2.14 kcal/mol | N(sites) (ITC) (dephosphorylated IRE1α; [4]): 1 | ΔG (ITC) (dephosphorylated IRE1α; [4]): -7.62 kcal/mol | ΔH (ITC) (dephosphorylated IRE1α; [4]): -5.48 ± 2.28 kcal/mol

p-IRE1α IC50 ([1]; FRET assay, RNase activity, mean (± SEM)): IC₅₀ not reached | IC50 [1, 2]: > 20000 nM | inhibition(%) ([1]; IA34 0.000847 μM, Supplementary Fig. 3b, replicate values): 2.43% and -1.86% and 1.39% | inhibition(%) ([1]; IA34 0.00254 μM, Supplementary Fig. 3b, replicate values): -5.52% and -18.14% and 21.30% and 14.33% | inhibition(%) ([1]; IA34 0.007621 μM, Supplementary Fig. 3b, replicate values): 0.79% and -13.95% and -1.17% and 1.14% | inhibition(%) ([1]; IA34 0.022862 μM, Supplementary Fig. 3b, replicate values): 1.11% and -4.73% and 39.51% and 0.29% | inhibition(%) ([1]; IA34 5.55556 μM, Supplementary Fig. 3b, replicate values): 14.49% and 0.73% and 11.46% and -10.03% | inhibition(%) ([1]; IA34 16.6667 μM, Supplementary Fig. 3b, replicate values): 26.07% and 13.29% and -8.49% and -17.54% | inhibition(%) ([1]; IA34 50 μM, Supplementary Fig. 3b, replicate values): -20.79% and 2.08% and 7.61% and 4.39% | stabilization of IRE1α in DSF (IRE1α): did not show any detectable changes | p-IRE1a ∆Tm(°C) (p-IRE1α; compound 6.25 μM): 0.04 °C and -0.01 °C | p-IRE1a ∆Tm(°C) (p-IRE1α; compound 12.5 μM): 0 °C and -0.08 °C | p-IRE1a ∆Tm(°C) (p-IRE1α; compound 25 μM): 0.02 °C and 0.03 °C | p-IRE1a ∆Tm(°C) (p-IRE1α; compound 50 μM): 0.03 °C and 0.12 °C | binding to IRE1α in ITC (dephosphorylated IRE1α): no binding signal
SMILES: COc1ccc2c(c1)c(CCC(=O)O)c(C)n2C(=O)c1ccc2ccccc2c1 [IA34]
inhibition(%) ([1]; IA34 0.068587 μM, Supplementary Fig. 3b, replicate values): -18.24% and -15.02% and -11.07% and -8.20% | inhibition(%) ([1]; IA34 0.205761 μM, Supplementary Fig. 3b, replicate values): -19.34% and -16.85% and 12.47% and -7.35% | inhibition(%) ([1]; IA34 0.617284 μM, Supplementary Fig. 3b, replicate values): 15.53% and 10.67% and -18.52% and -10.41% | inhibition(%) ([1]; IA34 1.85185 μM, Supplementary Fig. 3b, replicate values): -19.37% and -18.05% and -6.66% and -19.44%

SMILES: COc1ccc2c(c1)c(CCC(=O)O)c(C)n2C(=O)c1ccccc1 [IA64]
IC50 [1, 2]: 37.4 nM | IC50 ([1]; FRET assay, read-out: p-IRE1α IC50 (RNase activity)): 30 nM | IC50 [1, 3]: 61 nM and 17 nM and 34 nM and 26 nM | stabilization of IRE1α in DSF (IRE1α): concentration-dependently stabilized | IRE1 ∆Tm(°C) (IRE1α; compound 6.25 μM): 1.2 °C and 1.21 °C | IRE1 ∆Tm(°C) (IRE1α; compound 12.5 μM): 1.94 °C and 2.05 °C | IRE1 ∆Tm(°C) (IRE1α; compound 25 μM): 2.82 °C and 2.92 °C | IRE1 ∆Tm(°C) (IRE1α; compound 50 μM): 3.88 °C | p-IRE1a ∆Tm(°C) (p-IRE1α; compound 6.25 μM): 0.67 °C and 0.63 °C | p-IRE1a ∆Tm(°C) (p-IRE1α; compound 12.5 μM): 1.12 °C and 1.05 °C | p-IRE1a ∆Tm(°C) (p-IRE1α; compound 25 μM): 1.46 °C and 1.49 °C | p-IRE1a ∆Tm(°C) (p-IRE1α; compound 50 μM): 2.16 °C and 2.21 °C | Kd (dephosphorylated IRE1α; titrating 200 μM compound into 10 μM IRE1α, no competitor (DMSO), read-out: KD (ITC)): 2960 nM
